According to patent US20040054244A1, “Process of quadricyclane production” (Exciton, Inc., priority 2000, published 2004):

Experiment: Solubility of sensitizer in norbornadiene
Conditions: at room temperature

## CCN(CC)c1ccc(C(=O)c2ccc(N(CC)CC)cc2)cc1 [EMK, 4,4′-bis (diethylamino) benzophenone]
  solubility in norbornadiene: at least 3.86 % by weight

## CN(C)c1ccc(C(=O)c2ccc(N(C)C)cc2)cc1 [MK, 4,4′-bis (dimethylamino)-benzophenone]
  solubility in norbornadiene: ≤ 0.32 % by weight
